# Results reported in ChEMBL document CHEMBL1128496, “Anti-AIDS (acquired immune deficiency syndrome) agents. 17. New brominated hexahydroxybiphenyl derivatives as potent anti-HIV agents” (J Med Chem, 1995).
# Several values for one entry are separate records, joined by “and”; a condition that tells them apart may be missing. Equal values may be shown once.
# How the values were obtained:
# [1] = Anti-HIV activity was evaluated by measuring the growth inhibition of acutely infected H9 lymphocytes as EC50.; assay type: functional; details: Human immunodeficiency virus 1
# [2] = Anti-HIV activity was evaluated by measuring the growth inhibition of acutely infected H9 lymphocytes as IC50.; assay type: functional; details: Human immunodeficiency virus 1
# [3] = Anti-HIV activity evaluated by measuring the growth inhibition of acutely infected H9 lymphocytes as therapeutic index.; design: species or system Human immunodeficiency virus 1; details: for selectivity ratio: human immunodeficiency virus 1, H9 lymphocytes acutely infected with HIV-1, read-out: TI; for TI: Human immunodeficiency virus 1
# [4] = Effect against HIV-1 expression in a chronically infected human T cell line ACH-2; assay type: functional, Human immunodeficiency virus 1
# [5] = Effect against HIV-1 expression in a chronically infected human T cell line ACH-2 in the presence of PMA(phorbol 12-myristate 13-acetate); assay type: functional, Human immunodeficiency virus 1
# [6] = Effect against HIV-1 expression in a chronically infected human T cell line ACH-2i n the presence of PMA(phorbol 12-myristate 13-acetate); assay type: functional, Human immunodeficiency virus 1
# [7] = Effect against HIV-1 chronically infected promonocytic cell line U1 in the presence of PMA(phorbol 12-myristate 13-acetate); assay type: functional, Human immunodeficiency virus 1
# H9 [8] = test: Anti-HIV activity of compound was evaluated by measuring the growth inhibition of acutely infected H9 lymphocytes as IC50.; assay type: functional, Homo sapiens
# H9 [9] = test: Anti-HIV activity of compound was evaluated by measuring the growth inhibition of acutely infected H9 lymphocytes.; assay type: functional, cell-based; details: Homo sapiens
# [10] = Effect against HIV-1 chronically infected promonocytic cell line U1; assay type: functional, Human immunodeficiency virus 1
# ACH-2 cell line [11] = test: Effect against HIV-1 chronically infected […] cell line ACH-2 cells; assay type: functional, Homo sapiens
# ACH-2 cell line [12] = test: Effect against HIV-1 chronically infected […] cell line ACH-2 cells in the presence of PMA(phorbol 12-myristate 13-acetate); assay type: functional, Homo sapiens
Structure (SMILES),EC50 [1] [µg/mL],IC50 [2] [µg/mL],selectivity ratio [3],further results
COc1c(OC(=O)c2ccccc2)c(OC(=O)c2ccccc2)c(Br)c(CO)c1-c1c(CO)c(Br)c(OC(=O)c2ccccc2)c(OC(=O)c2ccccc2)c1OC,> 100,> 100,1,
COC(=O)c1cc(OC)c2c(c1-c1c(C(=O)OC)cc(OC)c3c1OCO3)OCO2 [BIFENDATE],5,> 100,> 20,
COc1c(Br)c(C(=O)O)c(-c2c3c(c(OC)c(Br)c2C(=O)O)OCO3)c2c1OCO2.OCCN1CCCC1.OCCN1CCCC1,17,> 20,,TI [3]: < 1.2
CCOC(=O)c1c(Br)c(OC)c2c(c1-c1c3c(c(OC)c(Br)c1C(=O)[O-])OCO3)OCO2.[Na+],,> 100,,
COC(=O)c1cc(OC)c2c(c1-c1c3c(c(OC)c(Br)c1C(=O)OC)OCO3)OCO2,,,,p24 [4]: 148 pg ml-1 [middle of 6 runs]; p24 [5]: 23373 pg/mL; p24 [6]: 46208 pg/mL and 28634 pg/mL and 24832 pg/mL and 26957 pg/mL and 27699 pg/mL; p24 [7]: 10746 pg/mL and 13376 pg/mL and 8774 pg/mL and 7616 pg/mL and 7200 pg/mL and 8314 pg/mL
COC(=O)c1c(Br)c(OC(=O)c2ccccc2)c(OC(=O)c2ccccc2)c(OC)c1-c1c(OC)c(OC(=O)c2ccccc2)c(OC(=O)c2ccccc2)c(Br)c1C(=O)OC,> 100,> 100,1,
CCCCCCOC(=O)c1c(Br)c(OC)c2c(c1-c1c3c(c(OC)c(Br)c1C(=O)OCCCCCC)OCO3)OCO2,2,> 100,> 50,
COc1c(OC(=O)c2ccccc2)c(OC(=O)c2ccccc2)cc(CO)c1-c1c(CO)c(Br)c(OC(=O)c2ccccc2)c(OC(=O)c2ccccc2)c1OC,100,> 100,> 1,
COc1c2c(c3c(c1Br)c(=O)oc(=O)c1c(Br)c(OC)c4c(c13)OCO4)OCO2,,,,C50 (H9 [8]): >100 µg/mL
COc1c(Br)c(C(=O)O)c(-c2c3c(c(OC)c(Br)c2C(=O)O)OCO3)c2c1OCO2,> 100,> 100,,TI [3]: 1
COc1c(Br)c(C(=O)O)c(-c2c3c(c(OC)c(Br)c2C(=O)OCC[N+](C)(C)C)OCO3)c2c1OCO2.[Cl-],> 100,> 100,1,
COC(=O)c1cc(OC(=O)c2ccccc2)c(OC(=O)c2ccccc2)c(OC)c1-c1c(OC)c(OC(=O)c2ccccc2)c(OC(=O)c2ccccc2)c(Br)c1C(=O)OC,> 100,> 100,1,
COc1c(Br)c(C(=O)O)c(-c2c3c(c(OC)c(Br)c2C(=O)NCCN2CCNCC2)OCO3)c2c1OCO2,30,> 100,> 3.3,
COC(=O)c1c(Br)c(OC)c2c(c1-c1c3c(c(OC)c(Br)c1C(=O)OC)OCO3)OCO2,,,> 480,p24 [4]: 169 pg/mL and 141 pg/mL and 135 pg/mL and 142 pg/mL and 122 pg/mL and 123 pg/mL; p24 [6]: 31590 pg/mL and 35635 pg/mL and 30426 pg/mL and 32768 pg/mL and 29173 pg/mL and 27699 pg/mL; EC50 (H9 [9]): 0.23 µg/mL; p24 [10]: 15 pg/mL and 16 pg/mL and 14 pg/mL and 13 pg/mL and 17 pg/mL; p24 [7]: 10131 pg/mL and 10598 pg/mL and 11482 pg/mL and 9850 pg/mL and 8320 pg/mL and 7590 pg/mL
Br.COc1c(Br)c(C(=O)O)c(-c2c3c(c(OC)c(Br)c2C(=O)NCCN2CCCC2)OCO3)c2c1OCO2,> 100,> 100,1,
COc1c(Br)c(C(=O)[O-])c(-c2c3c(c(OC)c(Br)c2C(=O)[O-])OCO3)c2c1OCO2.[Na+].[Na+],> 100,> 100,1,
CCOC(=O)c1c(Br)c(OC)c2c(c1-c1c3c(c(OC)c(Br)c1C(=O)O)OCO3)OCO2,60,> 100,> 1.7,
Cc1cn([C@H]2C[C@H](N=[N+]=[N-])[C@@H](CO)O2)c(=O)[nH]c1=O [ZIDOVUDINE],,,,p24 (ACH-2 cell line [11]): 167 pg ml-1 [middle of 4 runs]; p24 (ACH-2 cell line [12]): 19814 pg/mL and 30758 pg/mL and 31808 pg/mL and 31360 pg/mL; p24 [10]: 22 pg/mL and 13 pg/mL and 12 pg/mL and 18 pg/mL; p24 [7]: 9338 pg/mL and 9299 pg/mL and 8218 pg/mL and 8070 pg/mL
